# Experimental data taken from US7847065B2, “CXADRL1 polypeptides relating to human cancers” (Oncotherapy Science, Inc., priority 2002, dated 2010).
# Ends that are not written are not given here. Peptide text beside a SMILES is read from it.
# System: TISI cells (HLA-A24/24)
Compound,Cytotoxicity of CTL lines (9mer) ×2 Pep(+) [%],Cytotoxicity of CTL lines (9mer) ×2 Pep(−) [%],Cytotoxicity of CTL lines (9mer) ×20 Pep(+) [%],Cytotoxicity of CTL lines (9mer) ×20 Pep(−) [%],Cytotoxicity of CTL lines (10mer) ×2 Pep(+) [%],Cytotoxicity of CTL lines (10mer) ×2 Pep(−) [%],Cytotoxicity of CTL lines (10mer) ×20 Pep(+) [%],Cytotoxicity of CTL lines (10mer) ×20 Pep(−) [%],Cytotoxic activity of peptide-induced CTL line/clone on peptide-pulsed target
"RYQASCRQA [RNF43-247, RYQASCRQA]",28,16,71,82,,,,,
"GFGRTGLVL [RNF43-24, GFGRTGLVL]",1,2,8,9,,,,,
"RPPRPGPFL [RNF43-368, RPPRPGPFL]",0,0,1,0,,,,,
"RAPGEQQRL [RNF43-397, RAPGEQQRL]",15,15,41,32,,,,,
"SYCTERSGYL [RNF43-449, SYCTERSGYL]",,,,,0,0,1,1,
"SYQEPGRRL [RNF43-331, SYQEPGRRL]",0,0,2,1,,,,,
"HYTPSVAYPW [RNF43-683, HYTPSVAYPW]",,,,,0,−1,0,0,
"TFCSSLSSDF [RNF43-496, TFCSSLSSDF]",,,,,0,0,8,9,
"LFNLQKSSL [RNF43-639, LFNLQKSSL]",7,5,42,33,,,,,higher cytotoxic activities
"RAPRPCLSL [RNF43-114, RAPRPCLSL]",6,9,23,26,,,,,
"KMDPTGKLNL [RNF43-54, KMDPTGKLNL]",,,,,0,−1,5,2,modest cytotoxic activity

# System: T2 cells (HLA-A*0201)
# Description: Target cells were labeled with 100 μCi of Na2^51CrO4 (Perkin Elmer Life Sciences) for 1 h at 37° C. in a CO2 incubator. When peptide-pulsed targets were used, target cells were incubated with the addition of 20 μg/ml of the peptide for 16 h at 37° C. before the labeling with Na2^51CrO4. Target cells were rinsed and mixed with effectors at a final volume of 0.2 ml in round-bottom microtiter plates. The plates were centrifuged (4 minutes at 800×g) to increase cell-to-cell contact and placed in a CO2 incubator at 37° C. After 4 h of incubation, 0.1 ml of the supernatant was collected from each well and the radioactivity was determined with a gamma counter. In case of evaluating cytotoxicity against target cells that endogenously express RNF43, CXADRL1, or GCUD1, the cytolytic activity was tested in the presence of a 30-fold excess of unlabeled K562 cells to reduce any non-specific lysis due to NK-like effectors. […] The MHC restriction was examined by blocking assay, measuring the inhibition of the cytotoxicity with anti-HLA-class I (W6/32) antibody and anti-HLA-class II antibody, or anti-CD4 antibody and anti-CD8 antibody (DAKO).
# The percentage of specific cytotoxicity was determined by calculating the percentage of specific ^51Cr-release by the following formula: {(cpm of the test sample release−cpm of the spontaneous release)/(cpm of the maximum release−cpm of the spontaneous release)}×100. Spontaneous release was determined by incubating the target cells alone in the absence of effectors, and the maximum release was obtained by incubating the targets with 1N HCl. All determinants were done in duplicate, and the standard errors of the means were consistently below 10% of the value of the mean.
Compound,Cytotoxicity(%) ×2 Pep(+) [%],Cytotoxicity(%) ×2 Pep(−) [%],Cytotoxicity(%) ×20 Pep(+) [%],Cytotoxicity(%) ×20 Pep(−) [%]
"CC(C)C[C@H](NC(=O)[C@@H](N)CS)C(=O)N[C@@H](Cc1c[nH]cn1)C(=O)N[C@@H](CCC(=O)O)C(=O)N[C@@H](Cc1ccccc1)C(=O)N[C@@H](Cc1c[nH]cn1)C(=O)N[C@@H](CCCNC(=N)N)C(=O)N[C@@H](CC(N)=O)C(=O)N[C@@H](CS)C(=O)N[C@H](C(=O)O)C(C)C [RNF43-290, CLHEFHRNCV] (H-CLHEFHRNCV-OH)",2.7,3.7,9.6,9.7
"WLHQHRTCPL [RNF43-302, WLHQHRTCPL]",1.5,2.2,7.4,6.1
